These results are taken from ChEMBL document CHEMBL1126845, “N-(carboxymethyl)-N-[3,5-bis(decyloxy)-phenyl]glycine (Ro 23-9358): a potent inhibitor of secretory phospholipases A2 with antiinflammatory activity” (J Med Chem, 1993).

Common to all, as to type: functional
The species named for test [1] is Rattus norvegicus. Description: Paw volume in rat during treatment period.
Test [2] has as its system Rattus norvegicus. Put plainly: Paw swelling rats induced by Naja naja venom PLA2 when tested at 30 mg/kg ip. The following applies: route intraperitoneal.
The target of test [3] is T1, Phospholipase A2, membrane associated (Homo sapiens, UniProt P14555).
T1 sequence (P14555 whole entry): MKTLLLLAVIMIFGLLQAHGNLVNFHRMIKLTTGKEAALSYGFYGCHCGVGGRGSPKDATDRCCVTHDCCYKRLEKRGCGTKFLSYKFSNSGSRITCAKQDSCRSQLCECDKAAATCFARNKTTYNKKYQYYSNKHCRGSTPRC
Put plainly: Tested for inhibitory activity against human synovial fluid PLA2 (HSF-PLA2).

Test [4] in a line: Tested for inhibitory activity against purified recombinant human placental PLA2 (r-hpPLA2).

As to `CCCCCCCCCCOc1cc(OCCCCCCCCCC)cc(N(CC(=O)O)CC(=O)O)c1`, in test [1], the Paw volume turned out to be 1 mL. Also, 30 mg/kg produced 41% inhibition in vivo in test [2]. For the same compound, the IC50 in test [3] came out at 0.23 µM; in test [4] it was 0.087 µM.
`CCCCCCCCCCOc1cc(OCCCCCCCCCC)cc(C(=O)O)c1` had an IC50 in test [3] of 3 µM.
